In patent US20050014811A1, “Substituted benzimidazole compounds and their use for the treatment of cancer” (Aventis Pharma S.A., priority 2001, published 2005) one finds IC50 and melting point data, which are given here for 15 compounds.

Data set [1] addresses CDK2/CyclinE (Homo sapiens, UniProt P24941). In words: CDK2/CyclinE Flashplate assay, 96-well format, biotinylated-Rb peptide substrate. In kind it is biochemical. The method, boiled down:
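Biotinylated Rb peptide was captured on streptavidin Flashplates, and CDK2/CyclinE (200 ng/well) was preincubated 30 min on ice with inhibitor at 10, 3, 1, 0.3 or 0.1 μM final. Reactions ran 45 min at RT with 1 μM ATP plus 1 μCi ^33P-ATP. After washing, incorporated ^33P was counted, in duplicate.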

Data set [2] has as its target CDK4/CyclinD1 (Homo sapiens, UniProt P11802). In words: CDK4/CyclinD1 Flashplate assay, 96-well format, biotinylated-Rb peptide substrate. The format is biochemical. The method, boiled down:
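Biotinylated Rb peptide bound to streptavidin Flashplate; CDK4/CyclinD1 (70 ng/well) preincubated 30 min on ice with compound at 10, 3, 1, 0.3 and 0.1 μM final. Reaction with 1 μM cold ATP plus 33P-ATP for 45 min at RT; incorporated 33P counted, duplicates.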

CDK4/CyclinD1, sequence (P11802 whole entry, species assumed): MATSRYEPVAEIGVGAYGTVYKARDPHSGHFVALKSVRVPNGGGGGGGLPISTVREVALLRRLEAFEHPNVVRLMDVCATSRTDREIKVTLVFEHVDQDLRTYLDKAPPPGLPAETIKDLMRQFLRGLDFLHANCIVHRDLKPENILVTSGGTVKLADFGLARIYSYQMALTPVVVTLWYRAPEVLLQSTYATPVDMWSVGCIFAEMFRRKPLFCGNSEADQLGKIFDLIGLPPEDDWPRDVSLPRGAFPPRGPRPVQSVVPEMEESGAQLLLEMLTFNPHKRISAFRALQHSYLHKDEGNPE
CDK4/CyclinD1, sequence (P24385 whole entry partner, species assumed): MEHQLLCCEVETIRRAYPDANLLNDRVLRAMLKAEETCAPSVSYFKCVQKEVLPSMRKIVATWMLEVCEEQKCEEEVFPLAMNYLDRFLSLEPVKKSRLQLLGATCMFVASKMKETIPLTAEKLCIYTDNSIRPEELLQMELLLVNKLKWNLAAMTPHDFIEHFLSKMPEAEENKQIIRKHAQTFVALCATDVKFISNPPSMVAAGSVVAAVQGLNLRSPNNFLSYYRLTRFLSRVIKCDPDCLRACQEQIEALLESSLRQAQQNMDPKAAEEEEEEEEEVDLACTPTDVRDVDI

Usually IC50 stands for the point on the concentration scale where inhibition reaches its midpoint. What is called melting point is the temperature, or range, at which the solid turns liquid. Regarding `COC(=O)Nc1nc2cc(OS(=O)(=O)c3ccc(NCCO)cc3)ccc2[nH]1` [Example 1, Methyl-5-(4-[2-hydroxyethyl]aminophenylsulfonyloxy) benzimidazole-2-carbamate], the melting point amounted to 170 °C. Moreover, the IC50 in data set [1] stood at 600 nM. In data set [2], the half-inhibitory concentration (IC50) was determined as 1500 nM.

`COC(=O)Nc1nc2cc(OS(=O)(=O)c3ccc(NCCCCO)cc3)ccc2[nH]1` [Example 2, Methyl-5-(4-[4-hydroxbutyl]aminophenylsulfonyloxy) benzimidazole-2-carbamate] had a melting point of 180 °C. Besides, the half-maximal inhibitory concentration (IC50) in data set [1] was 700 nM. Moreover, the IC50 in data set [2] was 2000 nM.

For `COCCNc1ccc(S(=O)(=O)Oc2ccc3[nH]c(NC(=O)OC)nc3c2)cc1` [Example 3, Methyl-5-(4-[2-methoxyethyl]aminophenylsulfonyloxy) benzimidazole-2-carbamate], the melting point was found to be 155 °C. In addition, inhibition in data set [1] was half-maximal at 500 nM (IC50). The half-maximal inhibitory concentration (IC50) in data set [2] amounted to 2400 nM.

The compound `COC(=O)Nc1nc2cc(OS(=O)(=O)c3ccc(-n4ccnc4)cc3)ccc2[nH]1` [Example 4, Methyl-5-(4-[1-imidazolyl]-phenylsulfonyloxy) benzimidazole-2-carbamate] showed a melting point of 258 °C. In addition, the half-maximal inhibitory concentration (IC50) in data set [1] worked out at 1500 nM. For the same compound, the half-inhibitory concentration (IC50) in data set [2] was 6300 nM.

Take `O=C(NCCN1CCCCC1)Nc1nc2cc(OS(=O)(=O)c3ccc(NCC4CCCO4)cc3)ccc2[nH]1` (stereo not shown) [Example 59-r, 4-[(Tetrahydro-furan-2-ylmethyl)-amino]-benzenesulfonic acid 2-[3-(2-piperidin-1-yl-ethyl)-ureido]-1H-benzoimidazol-5-yl ester]: the values for the IC50 in data set [1] and in data set [2] were 220 nM and 1800 nM, respectively.

`COC(=O)Nc1nc2cc(OS(=O)(=O)c3cccs3)ccc2[nH]1` [Example 62-b, Thiophene-2-sulfonic acid 2-methoxycarbonylamino-1H-benzoimidazol-5-yl ester]: the figures for the IC50 in data set [1] and in data set [2] were 200 nM and 440 nM, respectively.

On to `COC(=O)Nc1nc2cc(OS(=O)(=O)c3ccc(-c4cc(C(F)(F)F)n(C)n4)s3)ccc2[nH]1` [Example 62-e, 5-(1-Methyl-5-trifluoromethyl-1H-pyrazol-3-yl)-thiophene-2-sulfonic acid 2-methoxycarbonylamino-1H-benzoimidazol-5-yl ester], for which the half-maximal inhibitory concentration (IC50) worked out at 1000 nM in data set [1] and 4600 nM in data set [2].

Regarding `COC(=O)Nc1nc2cc(OS(=O)(=O)c3c(F)cccc3F)ccc2[nH]1` [Example 62-h, 2,6-Difluoro-benzenesulfonic acid 2-methoxycarbonylamino-1H-benzoimidazol-5-yl ester], the half-inhibitory concentration (IC50) in data set [1] amounted to 70 nM; in data set [2] it was 800 nM.

In the case of `COC(=O)Nc1nc2cc(OS(=O)(=O)c3cccc(OC)c3)ccc2[nH]1` [Example 62-i, 3-Methoxy-benzenesulfonic acid 2-methoxycarbonylamino-1H-benzoimidazol-5-yl ester], the IC50 in data set [1] turned out to be 1000 nM; in data set [2], 1500 nM.

In the case of `COc1ccc(Nc2nc3cc(OS(=O)(=O)c4ccc(NC5CCCC5)cc4)ccc3[nH]2)cc1OC` [Example 69, 4-cyclopentylamino-benzenesulfonic acid 2-(3,4-dimethoxy-phenylamino)-1H-benzoimidazol-5-yl ester], the IC50 amounted to 130 nM in data set [1] and 840 nM in data set [2].

For the compound `O=S(=O)(Oc1ccc2[nH]c(Nc3ccc(N4CCOCC4)cc3)nc2c1)c1ccc(NC2CCCC2)cc1` [Example 70-b, 4-Cyclopentylamino-benzenesulfonic acid 2-(4-morpholin-4-yl-phenylamino)-1H-benzoimidazol-5-yl ester], the IC50 in data set [1] amounted to 3000 nM; in data set [2], 670 nM.

As for `Cc1cc(C)cc(Nc2nc3cc(OS(=O)(=O)c4ccc(NC5CCCC5)cc4)ccc3[nH]2)c1` [Example 70-c, 4-Cyclopentylamino-benzenesulfonic acid 2-(3,5-dimethyl-phenylamino)-1H-benzoimidazol-5-yl ester], the half-inhibitory concentration (IC50) came to 800 nM in data set [1] and 2000 nM in data set [2].

With `COc1ccc(Nc2nc3cc(OS(=O)(=O)c4ccc(NC5CCCC5)cc4)ccc3[nH]2)cc1` [Example 70-d, 4-Cyclopentylamino-benzenesulfonic acid 2-(4-methoxy-phenylamino)-1H-benzoimidazol-5-yl ester], the IC50 is 300 nM in data set [1] and 650 nM in data set [2].

For `CN(C)c1ccc(Nc2nc3cc(OS(=O)(=O)c4ccc(NC5CCCC5)cc4)ccc3[nH]2)cc1` [Example 70-e, 4-Cyclopentylamino-benzenesulfonic acid 2-(4-dimethylamino-phenylamino)-1H-benzoimidazol-5-yl ester], the half-maximal inhibitory concentration (IC50) in data set [1] was 800 nM; in data set [2], 500 nM.

Regarding `CN1CCN(c2ccc(Nc3nc4cc(OS(=O)(=O)c5ccc(NC6CCCC6)cc5)ccc4[nH]3)cc2)CC1` [Example 70-h], the IC50 was 250 nM in data set [1] and 140 nM in data set [2].
